Measurements as given in patent publication US10441568B2, “Nitroxide radicals for the treatment of diseases of the respiratory tract” (priority 2015, dated 2019).

Tests used:
[1] = test system: bleomycin-induced pulmonary fibrosis; assay: Lung resistance in bleomycin pulmonary fibrosis model; assay type: in vivo, mice; settings: 3-CP 150 mg/kg daily intranasal, 14 days, 64 mg/ml methacholine, FIG. 17
Experimental: One day after the final challenge, respiratory activity and airway hyper-responsiveness (AHR) of experimental animals were evaluated. Whole body plethysmographs for enhanced pause (Penh) measurements are often used for assessment of AHR. However, critics have questioned the validity of Penh measurements, which supposedly measure airway obstruction of live non-sedated mice, stating that it is likely to measure the distress of the animal rather than actual obstruction. […] In brief, mice were sedated with an intraperitoneal (IP) injection of xylazine hydrochloride and anaesthetized with IP injection of pentobarbital. Subsequently, the animals were tracheostomized using an 18 gauge cannula, ventilated with a FlexiVent™ apparatus (SCIREQ), and muscle paralysis was induced with pancuronium bromide. The mice were ventilated in a quasi-sinusoidal fashion with the following settings: a tidal volume of 10 ml/kg, maximum inflation pressure of […] (30 cm H2O), a positive end expiratory pressure (PEEP) of 3 millibar and a frequency of 150 per minute. […] Airway hyper-responsiveness (AHR) was determined by aerosolizing increasing concentrations of methacholine. […]
(§1) The effect of 3-CP on bleomycin-induced inflammation was evaluated by determining lung resistance, total inflammatory cell count, and TGF-β1 levels, according to procedures described hereinabove.

[2] = test system: bleomycin-induced pulmonary fibrosis; assay: Inflammatory cell counts in BAL fluid, bleomycin pulmonary fibrosis model; assay type: in vivo, mice; settings: 3-CP 150 mg/kg daily intranasal, 14 days, FIG. 18
Experimental: Bronchoalveolar lavage (BAL) fluid (also referred to herein as “BALf”) and bronchial submucosal inflammation are characteristic features of asthma. Mice were euthanized with an overdose of 50 mg/kg pentobarbital and ice-cold phosphate buffer saline (PBS) (0.6 ml) was instilled into the lungs. BAL fluid was obtained by three aspirations via tracheal cannulation, centrifuged, and the supernatant collected and stored at −70° C. Cell pellets were re-suspended in PBS and 100 μl aliquots placed onto slides and centrifuged (200 g, 4° C., 10 minutes) in a cytospin machine. Induction of oxidative stress was evaluated using a 2′,7′-dichlorofluorescein fluorescence assay, and total IgE, IgG2a, panel of cytokines, transforming growth factors, collagen, protein nitration and lipid peroxidation were measured using commercial kits according to the manufacturer's recommendations. A Sircol™ collagen assay kit was obtained from Biocolor Life Sciences Assays, a protein nitration assay kit was obtained from Abcam, and other assay kits were obtained from PeproTech Asia. […]
as §1

CC1(C)CC(C(N)=O)C(C)(C)N1[O] (centres unmarked) [3-CP, 3-Carbamoyl-2,2,5,5-tetramethyl-pyrrolidin-1-oxyl]
effect on bleomycin-induced increase in lung resistance [1]: completely reversed
effect on bleomycin-induced increase in inflammatory cell counts in BAL fluid [2]: significantly reduced
